How the values were obtained:
TDP1 [1] = molecular target: T1, TDP1 (Homo sapiens, UniProt Q9NUW8); experiment: Real-time fluorescence assay of TDP1 activity; type: biochemical; conditions: real-time fluorescent assay, 1.5 nM TDP1, 50 nM oligonucleotide; read-out: IC50 (TDP1)
T1 construct: made in house; host or cells: E. coli
Excerpt: We tested UA and all 14 newly synthesized UA derivatives for their TDP1 inhibitory properties by measuring their IC50 values using a real-time fluorescent assay. […] Compounds 10a,b are sulfoxide analogs of 7g,h.
Human recombinant tyrosyl-DNA phosphodiesterase 1 (TDP1) and human recombinant poly(ADP-ribose)-polymerase1 (PARP1) were expressed in the E. coli system and purified as described.
(§1) The biosensor (5′-[FAM] AAC GTC AGGGTC TTC C [BHQ]-3′) was synthesized in the Laboratory of Nucleic Acid Chemistry at the Institute of Chemical Biology and Fundamental Medicine (Novosibirsk, Russia) and was used for TDP1 enzyme activity real-time fluorescence detection. The reaction mixture (200 μL) contained a TDP1 reaction buffer (50 mM Tris-HCl, pH 8.0, 50 mM NaCl, and 7 mM β-mercaptoethanol), 50 nM oligonucleotide, varied concentrations of the tested compounds, and purified TDP1 in a final concentration 1.5 nM. The reaction mixtures were incubated at a constant temperature of 26 °C in a POLARstar OPTIMA fluorimeter (BMG LABTECH, GmbH, Ortenberg, Germany). Fluorescence intensity was measured (Ex485/Em520 nm) every 1 min for 10 min. The average values of the half maximal inhibitory concentration (IC50) were determined using an eleven-point concentration response curve and calculated using MARS Data Analysis 2.0 (BMG LABTECH). The 50% inhibitory concentration (IC50) was defined as the concentration of the compound that inhibited 50% of the enzyme activity when compared to the untreated controls. At least three independent experiments were carried out to obtain the IC50 values. To determine the kinetic parameters of the TDP1 enzymatic reaction, the apparent maximum rate of enzymatic reaction (Vmax), Michaelis constant (KM), possible inhibition mechanism, and steady-state kinetic experiments were carried out at 5 fixed concentrations of the substrate, with variation in the inhibitor concentrations. The standard reaction mixtures (200 μL) contained reaction buffer components; 50 nM, 100 nM, 200 nM, 500 nM, or 1000 nM substrate; an inhibitor; and 1.5 nM recombinant human TDP1. The initial kinetic curves were obtained in three independent experiments and statistically processed in OriginPro 8.6.0 (OriginLab, Northampton, MA, USA).

[2] = Colorimetric cytotoxicity test, HEK293FT; type: cell-based; conditions: human, HEK293FT cells, intrinsic cytotoxicity
Excerpt: (§2) The low intrinsic cytotoxicity of the additional drug component in the clinically used anticancer cocktails with traditional drugs is very important for treatment. This approach in chemotherapy can reduce the potential resulting toxic load on the body in the case of a combined action of these inhibitors on the activity of several targets. […] The effects of the tested compounds on cell survival are shown on Figure 4 and the CC50 values for three cell lines are shown in Table 1. The intrinsic cytotoxicity of a number of the studied compounds is quite high, namely, they have close IC50 values against the TDP1 and CC50 values on one or several studied cell lines. Most of the compounds generally were more toxic for the HEK293FT and HeLa cell lines than for the HEK293A cell line (Table 1 and Figure 4). The cytotoxicity of the three leader compounds, 7g, 10a, and 7h, was quite high. […] Compound 10b was one of the least toxic among the ten tested compounds.
(§3) Cytotoxicity of the compounds was examined against human cell lines HEK293A (human embryonic kidney)—WT, TDP1 deficient (Tdp1-/-), PARP1 deficient (PARP1-/-), and HeLa (cervical cancer) using an EZ4U colorimetric test (Biomedica, Vienna, Austria). The HEK293A cell line was obtained from Thermo Fisher Scientific (Waltham, MA, USA), and the HeLa cell line was obtained from the Russian Cell Culture Collection (RCCC) Institute of Cytology RAS, St. Petersburg, Russia. The cells were grown in DMEM/F12 medium (Gibco, Thermo Fisher Scientific, Waltham, MA, USA), with 1x GlutaMAX (Gibco, Thermo Fisher Scientific, Waltham, MA, USA), 50 IU/mL penicillin, 50 μg/mL streptomycin (MP Biomedicals), and in the presence of 10% fetal bovine serum (Biolot, Saint-Petersburg, Russia) in a 5% CO2 atmosphere. Cells were grown in the presence of 1% DMSO in the control wells. After the formation of a 30–50% monolayer, the tested compounds were added to the medium, and the cell culture was monitored for 3 days. The values were normalized to their own control in each case. At least three independent experiments were carried out. The 50% cytotoxic concentration (CC50) was defined as the compound concentration that reduced the cell viability by 50% when compared to the untreated controls. The compound concentration that caused 50% cell growth inhibition was determined using OriginPro 8.6.0 software (OriginLab, Northampton, MA, USA). The measurements were carried out in three independent experiments.

[3] = EZ4U colorimetric cytotoxicity test, HeLa; type: cell-based, human; conditions: human, HeLa cells; intrinsic cytotoxicity, compound alone, 3 days
Excerpt: as §2, §3

[4] = EZ4U colorimetric cytotoxicity test, HEK293A; type: cell-based; conditions: human, HEK293A cells; intrinsic cytotoxicity, 3 days; read-out: HEK293A CC50
Excerpt: as §2, §3

TDP1 [5] = molecular target: T1, TDP1; experiment: Steady-state kinetics of the TDP1 reaction (Vmax, KM, type of inhibition); type: biochemical; parameters: Vmax: unit not given here; conditions: for Type of inhibition of TDP1 enzyme reaction: steady-state conditions, fall in both Vmax and KM with increasing inhibitor
Excerpt: The reversible enzyme inhibitors were classified as competitive, uncompetitive, non-competitive, or mixed, depending on the binding of the enzyme, to the enzyme–substrate complex (ES) or to the enzyme–substrate–inhibitor triple complex (ESI). The enzyme could bind the inhibitor at the different steps of catalysis (before or after the substrate) and at the substrate-binding site or another site. The effect of the inhibitor on enzymatic activity can be analyzed using graphical representations of the Michaelis–Menten equation. […] TDP1 has a catalytic pocket with a narrow positively charged cleft where it binds DNA and with a relatively large cleft that contains a mixed charge distribution for the TOP1 fragment binding. It is known that TDP1 hydrolyzes the DNA–TOP1 adducts via two coordinated nucleophilic attacks of two His residues (His263 and His493) with the covalent intermediate complex formation. The enzyme reaction catalyzed by TDP1 could be inhibited in two steps: the first one is the inhibition of the TDP1 binding to the DNA substrate (the nucleophilic attack of His263). The second step is releasing TDP1 from the transition complex (nucleophilic attack by a water molecule activated by His493). Inhibition of the second step prevents the release of the DNA 3′-phosphate product from the DNA–TDP1 complex. Spinocerebellar ataxia with axonal neuropathy (SCAN1) is a neurological disease that is caused by a TDP1 His493Arg mutation. This mutation prevents the second step of hydrolysis of the intermediate complex and the enzyme remains covalently bound to DNA [47]. The uncompetitive inhibitors also prevent the second step of the reaction, stabilizing the enzyme–DNA covalent complex, which can lead to the accumulation of the single-strand breaks in the cell.
as §1
Table S25 Dependence of TDP1 reaction values V max and K M on the concentration of inhibitors
[7g], mM V max Standard Error K M Standard Error
[7h], mM V max Standard Error K M Standard Error
[10a], mM V max Standard Error K M Standard Error
[10b], mM V max Standard Error K M Standard Error

TDP1 [6] = test system: TDP1; parameters: method as in PMID 27933897, PMID 30076000, PMID 31619021, doi:10.1134/S1068162017010125, PMID 30396105; conditions: cited from earlier work
[7] = inhibitor 0.4 mM (so in the source)
[8] = inhibitor 0.8 mM (so in the source)
[9] = inhibitor 1.6 mM (so in the source)
[10] = inhibitor 3.2 mM (so in the source)
[11] = inhibitor 6.4 mM (so in the source)

T1 sequence (Q9NUW8 whole entry): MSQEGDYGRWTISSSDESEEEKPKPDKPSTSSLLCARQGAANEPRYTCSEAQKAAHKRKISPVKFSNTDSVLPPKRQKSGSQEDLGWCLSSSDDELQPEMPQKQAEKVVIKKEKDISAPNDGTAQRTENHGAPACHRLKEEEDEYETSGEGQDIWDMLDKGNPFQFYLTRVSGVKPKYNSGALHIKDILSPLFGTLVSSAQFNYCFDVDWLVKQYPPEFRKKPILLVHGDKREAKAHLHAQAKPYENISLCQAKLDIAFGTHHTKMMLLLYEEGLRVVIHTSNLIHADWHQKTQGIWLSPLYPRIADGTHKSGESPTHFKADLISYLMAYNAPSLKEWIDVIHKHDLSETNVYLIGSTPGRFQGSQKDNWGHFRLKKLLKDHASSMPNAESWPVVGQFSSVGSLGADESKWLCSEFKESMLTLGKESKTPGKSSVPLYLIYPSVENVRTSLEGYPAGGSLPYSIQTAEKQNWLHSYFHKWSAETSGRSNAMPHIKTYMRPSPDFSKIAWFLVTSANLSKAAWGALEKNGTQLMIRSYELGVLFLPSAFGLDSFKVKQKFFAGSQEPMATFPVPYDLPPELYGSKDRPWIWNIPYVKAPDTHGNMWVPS

Structure (SMILES) | IC50 (TDP1 [1]) [µM] | CC50 at 3 days [2] [µM] | CC50 at 3 days [3] [µM] | CC50 at 3 days [4] [µM] | Vmax (TDP1 [5]; [7]) | Vmax (TDP1 [5]; [8]) | Vmax (TDP1 [5]; [9]) | Vmax (TDP1 [5]; [10]) | Vmax (TDP1 [5]; [11]) | Type of inhibition of TDP1 enzyme reaction (TDP1 [5]) | Vmax (TDP1 [5]; inhibitor 0.2 mM (so in the source)) | IC50 (TDP1 [6]) [µM]
CC(=O)C1=C(O)C=C2Oc3c(C(=O)CSC(=S)N(C)C)c(O)c(C)c(O)c3[C@@]2(C)C1=O [7a, (2R)-4-acetyl-10-{2-[(dimethylcarbamothioyl)sulfanyl]acetyl}-5,11,13-trihydroxy-2,12-dimethyl-8-oxatricyclo [7.4.0.0^2,7]trideca-1(13),4,6,9,11-pentaen-3-one] | 5.4 ± 2.9 | > 50 | 13 ± 0.5 | > 50 |  |  |  |  |  |  |  | 
CC(=O)C1=C(O)C=C2Oc3c(C(=O)CSC4=NCCS4)c(O)c(C)c(O)c3[C@@]2(C)C1=O [7b, (2R)-4-acetyl-10-[2-(4,5-dihydro-1,3-thiazol-2-ylsulfanyl)acetyl]-5,11,13-trihydroxy-2,12-dimethyl-8-oxatricyclo[7.4.0.0^2,7]trideca-1(13),4,6,9,11-pentaen-3-one] | 4.4 ± 1 | 16 ± 5 | 11 ± 0.5 | > 50 |  |  |  |  |  |  |  | 
CC(=O)C1=C(O)C=C2Oc3c(C(=O)CSc4nnc(N)s4)c(O)c(C)c(O)c3[C@@]2(C)C1=O [7c, (2R)-4-acetyl-10-{2-[(5-amino-1,3,4-thiadiazol-2-yl)sulfanyl]acetyl}-5,11,13-trihydroxy-2,12-dimethyl-8-oxatricyclo[7.4.0. 0^2,7]trideca-1(13),4,6,9,11-pentaen-3-one] | 4.3 ± 0.5 | 35 ± 2 | 33 ± 2 | > 50 |  |  |  |  |  |  |  | 
CC(=O)C1=C(O)C=C2Oc3c(C(=O)CSc4nc5ccccc5o4)c(O)c(C)c(O)c3C2(C)C1=O (stereo not drawn) [7e] | 3.2 ± 0.5 | 4.5 ± 1 | 2.9 ± 0.2 | 26 ± 2 |  |  |  |  |  |  |  | 
CC(=O)C1=C(O)C=C2Oc3c(C(=O)CSc4nc5ccccc5[nH]4)c(O)c(C)c(O)c3[C@@]2(C)C1=O [7f, (2R)-4-acetyl-10-[2-(1H-1,3-benzodiazol-2-ylsulfanyl)acetyl]-5,11,13-trihydroxy-2,12-dimethyl-8-oxatricyclo[7.4.0.0^2,7]trideca-1(13),4,6,9,11-pentaen-3-one] | 2.4 ± 1 | 10 ± 2 | 13 | > 50 |  |  |  |  |  |  |  | 
CC(=O)C1=C(O)C=C2Oc3c(C(=O)CSc4nc5ccccc5s4)c(O)c(C)c(O)c3C2(C)C1=O (stereo not drawn) [7g] | 1.7 ± 0.6 | 3 ± 1 | 2 ± 0.6 | 3.5 ± 0.3 | 35.4 | 25.6 | 23.0 | 19.4 | 10.9 | uncompetitive |  | 
CC(=O)C1=C(O)C=C2Oc3c(C(=O)CSc4ccc(Cl)cc4)c(O)c(C)c(O)c3C2(C)C1=O (stereo not drawn) [7h] | 2.2 ± 0.5 | 4 ± 1 | 2.5 ± 0.5 | 10 ± 2 | 31.0 | 26.7 | 18.5 | 15.3 | 11.2 | uncompetitive |  | 
CC(=O)C1=C(O)C=C2Oc3c(C(=O)C[S+]([O-])c4ccc(Cl)cc4)c(O)c(C)c(O)c3[C@@]2(C)C1=O (stereo partly drawn) [10b] |  | 20 ± 3 | 27 ± 2 | > 50 | 10.7 | 8.5 | 6.3 |  |  | uncompetitive | 18.7 | 
CC(=O)c1c(O)c(C)c(O)c2c1OC1=CC(=O)/C(=C(/C)NCCCc3cc(C(C)(C)C)c(O)c(C(C)(C)C)c3)C(=O)[C@@]12C [compound 2] |  |  |  |  |  |  |  |  |  |  |  | 0.16
CC(=O)C1=C(O)C=C2Oc3c4c(c(C)c(O)c3[C@@]2(C)C1=O)O/C(=C\c1ccc(Br)cc1)C4=O [compound 3] |  |  |  |  |  |  |  |  |  |  |  | 0.15
CC(=O)C1=C(O)C=C2Oc3c(C(=O)CSC#N)c(O)c(C)c(O)c3[C@@]2(C)C1=O [compound 5] |  |  |  |  |  |  |  |  |  |  |  | 1.16

— PMC8583042, “New Hybrid Compounds Combining Fragments of Usnic Acid and Thioether Are Inhibitors of Human Enzymes TDP1, TDP2 and PARP1” (International Journal of Molecular Sciences, 2021)
